Test results published in patent USRE48636E1, “Decoy peptides inhibiting protein phosphatase 1-mediated dephosphorylation of phospholamban” (BethphaGen Inc., priority 2012, dated 2021).
Entries after “also recorded” stand apart in the source; their conditions may differ. No end group written: not given here.

Tests used:
adult cardiomyocytes [1] = experiment: Intracellular Ca2+ transient measurement (Fura2-AM) in isolated adult cardiomyocytes; format: cell-based, rat; conditions: for Effect on PMA-induced defects in intracellular Ca2+ handling (Ca2+ transient amplitude, time constant of decay): 1 μM peptide 45 min, then 1 μM PMA 15 min, Fura2/AM
Method: (§1) FIGS. 2a-2d represent the increase in cardiac contractility by the decoy peptides. Isolated adult cardiomyocytes were treated with 1 μM of indicated peptides for 45 min, and then with 1 μM of PMA for 15 min. Contractile parameters were then determined. FIGS. 2a and 2b show contractile parameters. Peak cell shortening, percentage of shortened cell length; −dL/dt, maximal rate of cell shortening; +dL/dt, maximal rate of cell relengthening. FIGS. 2c and 2d show average parameters of the transient Ca^2+ properties determined with Fura2/AM. Baseline [Ca^2+]i, baseline intracellular Ca^2+ levels; Δ[Ca^2+]i (340/380), increase in intracellular Ca^2+ levels in response to electric Stimuli; τ(ms), Ca^2+ transient decay rate. Approximately 500 cells were chosen for the contractility and Ca^2+ transient measurements were taken from eight individual hearts. #, P<0.05; *, P<0.01 compared to control; error bars represent SD.
(§2) Ventricular myocytes were isolated from SD rat hearts as previously described with minor modifications. Male rats of 8-12 weeks of age (250-320 g) were used. In brief, rats were anesthetized by the inhalation of isofluran (0.5%) for 5 min. The heart was quickly removed from the chest and the aorta was retrogradely perfused at 37° C. for 3 min with calcium-free Tyrode buffer (137 mM NaCl, 5.4 mM KCl, 1 mM MgCl2, 10 mM glucose, 10 mM HEPES [pH 7.4], 10 mM 2, 3-butanedione monoxime, and 5 mM taurine) gassed with 100% O2. The enzymatic digestion was then initiated by adding collagenase type B (0.35 U/ml; Roche) and hyaluronidase (0.1 mg/ml; Worthington) to the perfusion solution. When the heart became swollen after 10 min of digestion, the left ventricle was quickly removed, cut into several chunks, and further digested in a shaker (60-70 rpm) for 10 min at 37° C. in the same enzyme solution. The supernatant containing the dispersed myocytes was then filtered through a cell strainer (100 μm in pore size, BD Falcon) and gently centrifuged at 500 rpm for 1 min. Extracellular Ca^2+ was incrementally added back to a concentration of 1.25 mM over a span of 30 min to avoid the Ca^2+ paradox. This procedure usually yielded ≥80% viable rod-shaped ventricular myocytes with clear sarcomere striations. Myocytes with obvious sarcolemmal blebs or spontaneous contractions were discarded.
(§3) The mechanical properties of ventricular myocytes were assessed using a video-based edge detection system (IonOptix), as previously described. In brief, laminin-coated coverslips with attached cells were placed in a chamber mounted on the stage of an inverted microscope (Nikon Eclipse TE-100F) and perfused (about 1 ml/min at 37° C.) with Tyrode buffer (137 mM NaCl, 5.4 mM KCl, 1 mM CaCl2, 1 mM MgCl2, 10 mM glucose, and 10 mM HEPES [pH 7.4]). The cells were field-stimulated at a frequency of 3 Hz (30 V) using a STIM-AT stimulator/thermostat placed on a HLD-CS culture chamber/stim holder (Cell Micro Controls). […] Changes in cell length during shortening and relengthening were captured and analyzed using soft edge software (IonOptix). The cardiomyocytes were loaded with 0.5 μM Fura2-AM (Molecular Probes), a Ca^2+-sensitive indicator, for 15 min at 37° C. Fluorescence emissions were recorded simultaneously with the contractility measurements using Myocyte calcium and contractility recording system (IonOptix). Cardiomyocytes were exposed to light emitted by a 75 W halogen lamp through either a 340 or 380 nm filter while being field-stimulated as described above. Fluorescence emissions were detected between 480 and 520 nm by a photomultiplier tube after initial illumination at 340 nm for 0.5 ms and then at 380 nm for the duration of the recording protocol. The 340 nm excitation scan was then repeated at the end of the protocol, and qualitative changes in the intracellular Ca^2+ concentration were inferred from the ratio of the Fura fluorescence intensity at both wavelengths.

adult cardiomyocytes [2] = experiment: Cell contractility of isolated adult cardiomyocytes (video-based edge detection); design: species or system rat; conditions: for Effect on PMA-induced reduction in contractility (peak shortening, rates of contraction and relaxation): 1 μM peptide 45 min, then 1 μM PMA 15 min
Method: as §1, §2, §3

[3] = tested on: PP1-mediated dephosphorylation of PLB; experiment: PLB phosphorylation (Western blot) in PMA-treated isolated adult cardiomyocytes; format: cell-based, rat; conditions: 1 μM peptide 45 min, then 1 μM PMA 15 min; for Blocking of PMA-induced dephosphorylation of PLB at Ser16 and Thr17 (elevating the phosphorylation levels of PLB): Western blot
Method: FIGS. 1c-1d represent the increase in PLB phosphorylation by the decoy peptides (FIG. 1c) and shortened decoy peptides (FIG. 1d). Isolated adult cardiomyocytes were treated with 1 μM of indicated peptides for 45 min, and then with 1 μM of PMA for 15 min. Western blots of cell lysates were then probed with antibodies against phospho-PLB (S^16), phospho-PLB (T^17), total PLB, or GAPDH. The decoy peptides contain the following sequences: ψPLB-SE, RAETIEMPQ (SEQ ID NO:1); ψPLB-SD, RADTIEMPQ (SEQ ID NO:3); ψPLB-TE, RASEIEMPQ (SEQ ID NO:2). The shortened decoy peptides contain the following sequences: ψPLB-8-mer, AETIEMPQ (SEQ ID NO:4); ψPLB-7-mer, RAETIEM (SEQ ID NO:5); ψPLB-6-mer, RAETIE (SEQ ID NO:6); ψPLB-5-mer: RAETI (SEQ ID NO:7). PMA, phorbol 12-myristate 13-acetate.
The decoy peptides were derived from the PLB protein sequence (SEQ ID NO:10) surrounding the phosphorylation sites Ser^16 and Thr^17: RAS^16T^17IEMPQ. The peptides were conjugated via a cystein-cystein bond at their N termini to the cell penetrating peptide TAT (YGRKKRRQRRR (SEQ ID NO:11)) to facilitate uptake into cells. The peptides used in this invention were as follows: ψPLB-wt, RASTIEMPQ (SEQ ID NO:8); ψPLB-SE, RAETIEMPQ (SEQ ID NO:1); ψPLB-TE, RASEIEMPQ (SEQ ID NO:2); ψPLB-SD, RADTIEMPQ (SEQ ID NO:3). In addition, shortened ψPLB-SE peptides were also tested: 8-mer, AETIEMPQ (SEQ ID NO:4); 7-mer, RAETIEM (SEQ ID NO:5); 6-mer, RAETIE (SEQ ID NO:6); 5-mer, RAETI (SEQ ID NO:7). All of the peptides were synthesized and modified by AnyGen (Gwangju, Korea) and dissolved in distilled water to a stock concentration of 1 mM. Peptides were >95% pure. The decoy peptides were treated for 1 h at a final concentration of 1 μM.
as §2
(§4) Heart lysates (50 μg) in SDS sample buffer were run on a SDS-PAGE gel and then transferred to a PVDF membrane (Bio-Rad). The membrane was blocked with a 5% skim milk solution and then incubated overnight with antibodies directed against PLB (Affinity Bioreagents), phospho-PLB (Ser^16, Cell Signaling), phospho-PLB (Thr^17, Badrilla), SERCA2a (Santa Cruz), Caspase 3 (Cell Signaling), or GAPDH (Santa Cruz). The membranes were then incubated with a secondary antibody conjugated to horseradish peroxidase (Jackson Immuno Research) and developed using the Western Lighting chemiluminescence reagent (Perkin Elmer).

rat hearts = experiment: Langendorff isolated perfused heart, ischemia/reperfusion ex vivo, left ventricular developed pressure; conditions: 20 min no-flow ischemia, 30 min reperfusion with 1 μM peptide
Method: (§5) FIGS. 3a-3b represent the postischemic cardiac performance ex vivo. […] The changes in left ventricular developed pressure (LVDP) are shown. n=4. *, P<0.01 compared to TAT; error bars represent SEM. […] Western blots probed with antibodies against phospho-PLB (S^16), phosphor-PLB (T^17), total PLB, Caspase 3, or GAPDH are shown.
Rats were anesthetized by inhalation of isofluran (0.5%) for 5 min. The heart was quickly removed and placed in cold oxygenated Tyrode solution (137 mM NaCl, 5.4 mM KCl, 1 mM MgCl2, 10 mM glucose, 1 mM CaCl2, 10 mM HEPES [pH 7.4], 100% O2). The aorta was cannulated and perfused by the Langendorff method with oxygenated Tyrode solution at constant pressure (65 mmHg, temperature 37±0.2° C.). A latex water-filled balloon was inserted into the left ventricular chamber and connected to a pressure transducer (AD Instruments) for continuous measurement of heart performance. Heart rate, left ventricular developed pressure (LVDP), and the first derivatives of LV pressure (LV +dP/dt max and LV −dP/dt max) were all recorded using PowerLab Chart Systems (AD Instruments). The balloon volume was adjusted in 250-300 μl to result in a measured end diastolic pressure in the range of 6-10 mmHg. After a 30 min stabilization period, the hearts were subjected to 20 min of no-flow to induce global ischemia, followed by 30 min of reperfusion. […]

PLB = experiment: Western blot of heart lysates after ischemia/reperfusion: phospho-PLB; design: species or system rat; conditions: heart lysates at the end of reperfusion with 1 μM peptide
Method: as §5, §4
(§6) Rats were anesthetized by inhalation of isofluran (0.5%) for 5 min. […] Heart rate, left ventricular developed pressure (LVDP), and the first derivatives of LV pressure (LV +dP/dt max and LV −dP/dt max) were all recorded using PowerLab Chart Systems (AD Instruments). The balloon volume was adjusted in 250-300 μl to result in a measured end diastolic pressure in the range of 6-10 mmHg. […]

Caspase 3 = experiment: Western blot of heart lysates after ischemia/reperfusion: Caspase 3; design: species or system rat; conditions: heart lysates at the end of reperfusion with 1 μM peptide
Method: as §5, §4, §6

[4] = 1 μM PMA 15 min, no decoy peptide

Molecule	Blocking of PMA-induced dephosphorylation of PLB at Ser16 and Thr17 (elevating the phosphorylation levels of PLB) [3]	Effect on PMA-induced defects in intracellular Ca2+ handling (Ca2+ transient amplitude, time constant of decay) (adult cardiomyocytes [1])	Effect on PMA-induced reduction in contractility (peak shortening, rates of contraction and relaxation) (adult cardiomyocytes [2])	also measured
CCCCCCCCCCCCCC(=O)O[C@@H]1[C@@H](C)[C@@]2(O)[C@@H](C=C(CO)C[C@]3(O)C(=O)C(C)=C[C@@H]23)[C@@H]2C(C)(C)[C@]12OC(C)=O [PMA, phorbol 12-myristate 13-acetate, reference compound]	–	–	–	Ca2+ transient amplitude (adult cardiomyocytes [1]; [4]): significant reduction; Time constant of the Ca2+ transient decay (adult cardiomyocytes [1]; [4]): significant increase; Contractility (peak shortening, rates of contraction and relaxation) (adult cardiomyocytes [2]; [4]): significantly reduced
AETIEMPQ (not fully specified (N-terminus); also: TAT coupled) [ψPLB-8-mer]	only ψPLB-5-mer was ineffective	–	–	–
RADTIEMPQ (not fully specified (N-terminus); also: TAT coupled) [ψPLB-SD]	as effective as ψPLB-SE	as effective as ψPLB-SE	as effective as ψPLB-SE	–
RAETI [ψPLB-5-mer]	ineffective	–	–	–
RAETIE [ψPLB-6-mer]	only ψPLB-5-mer was ineffective	as effective as ψPLB-SE	as effective as ψPLB-SE	–
RAETIEM [ψPLB-7-mer]	only ψPLB-5-mer was ineffective	–	–	–
RAETIEMPQ (not fully specified (N-terminus); also: TAT coupled) [ψPLB-SE]	significantly blocked; also recorded: prevented dephosphorylation	completely reversed	completely prevented	Left ventricular developed pressure after ischemia/reperfusion (rat hearts; I/R alone 37-44 mmHg, pre-ischemia 80-100 mmHg): 73-78 mmHg; Phosphorylation of PLB at Ser16 after ischemia/reperfusion (PLB): significantly recovered; Phosphorylation levels of PLB after treatment compared with basal levels [3]: slightly but significantly higher than the basal levels; I/R-induced activation of cell death-related Caspase 3 (Caspase 3): completely reversed
RASEIEMPQ (not fully specified (N-terminus); also: TAT coupled) [ψPLB-TE]	blocked dephosphorylation but was less effective than ψPLB-SE; also recorded: not as effective as ψPLB-SE	negligible or marginal	no or only marginal effects	–
RASTIEMPQ (not fully specified (N-terminus); also: TAT coupled via disulfide) [ψPLB-wt]	–	negligible or marginal	no or only marginal effects	–
YGRKKRRQRRR (Human immunodeficiency virus) [TAT, reference compound]	–	–	–	Effect on left ventricular developed pressure after ischemia/reperfusion (rat hearts): no effects
